Several values for one entry are separate records, joined by “and”; a condition that tells them apart may be missing. Equal values may be shown once.
Legend:
AAD12 Soybean (GLXMA) [1] = assay: Field trials, crop tolerance (% visual necrosis); assay type: in vivo, Glycine max L. (soybean)
Method: (§1) Field trials were conducted under agricultural field conditions in multiple states in the United States, including but not limited to Arkansas, Iowa, Illinois, Indiana, Kansas, Minnesota, Mississippi, Missouri, New York, Tennessee and Wisconsin. Trials were established as RCB (randomized complete block) design, with 3-4 replicates per treatment, and plot sizes varying from 5-10 feet (ft) wide by 12-30 ft long. Treatments were applied with small plot backpack sprayers, using pressurized carbon dioxide (CO2) as propellant. Pressure varied from 17-52 pounds per square inch (psi), with spray tips typically of a Flat Fan type applying water diluent at 15 gallons per acre (GPA). Boom sizes varied from 5-11 ft in width. Treatments were applied to soybean, cotton, corn or fallow crop land. Weed sizes varied, but all treatments were applied as post-emergence treatments to weeds from 2 leaf to 2 tiller growth stages varying from 3 to 17 inches in height. The weed spectrum included, but was not limited to, Amaranthus palmeri S. Wats. (Palmer amaranth, AMAPA), Ambrosia trifida L. (giant ragweed, AMBTR), Conyza canadensis (L.) Cronq. (horseweed, ERICA) and Salsola tragus L. (Russian thistle, SASKR).
Glyphosate-, 2,4-D- and glufosinate-tolerant soybeans, corn or cotton comprising genes for tolerance for each herbicide as described above were used in all trials either as a breeding stack of one to three herbicide-tolerant events or as a molecular stack where all three herbicide tolerance traits were transformed into a single event.
The 2,4-D-choline salt plus glyphosate premix formulation was a 400 g ae/L SL containing 195 g ae/L 2,4-D-choline salt and 205 g ae/L glyphosate-dimethylammonium (DMA) salt. […] All treatments were mixed in water at appropriate formulated product rates to achieve the desired rates as shown based on a unit area of application (hectare). Treatments were rated at 1 to 28 days after application (DAA) as compared to the untreated control plants. The trial sites had naturally occurring populations of weeds. The treated plots and control plots were rated blind at various intervals after application.
Colby's equation was used to determine the herbicidal effects expected from the mixtures (Colby, S. R. Calculation of the synergistic and antagonistic response of herbicide combinations. Weeds 1967, 15, 20-22). A t-test (alpha=0.05) between Colby predictions and observed combinations was used to test for significant differences indicating synergy or antagonism using replicate data.
However, the experiments described herein were performed such that active ingredients A and B were combined and only the efficacy of the combination was determined. As such, Colby's equation simplifies to
Z=observed efficacy of a combination of active ingredient A (2,4-D-choline) and active ingredient B (glyphosate-DMA) at the same concentration as used in the mixture;

AAD12 Soybean (GLXMA) [2] = assay: Field trials, crop tolerance (% visual chlorosis); assay type: in vivo, Glycine max L. (soybean)
Method: as §1, with “SASKR). […]” for “SASKR).”
However, the experiments described herein were performed such that active ingredients A and B were combined and only the efficacy of the combination was determined. […]

In the case of CP(=O)(O)CCC(N)C(=O)O (stereo not shown) [Glufosinate-Ammonium, ammonium (3-amino-3-carboxypropyl)(methyl)phosphinate], the “Mean % Visual Necrosis” value (AAD12 Soybean (GLXMA) [1]; 2 DAA, 1084 g ae/ha alone) is reported as 25.0%, the “Mean % Visual Necrosis” value (AAD12 Soybean (GLXMA) [1]; 3 DAA, 542 g ae/ha alone) is reported as 0.0% and the “Mean % Visual Necrosis” value (AAD12 Soybean (GLXMA) [1]; 3 DAA, 822 g ae/ha alone) is reported as 0.8%. The “Mean % Visual Necrosis” value (AAD12 Soybean (GLXMA) [1]; 3 DAA, 1084 g ae/ha alone) was 3.0% and 8.5% and 1.5% and 1.3%, the “Mean % Visual Necrosis” value (AAD12 Soybean (GLXMA) [1]; 5 DAA, 542 g ae/ha alone) was 2.8% and the “Mean % Visual Necrosis” value (AAD12 Soybean (GLXMA) [1]; 7 DAA, 542 g ae/ha alone) was 0.5% and 0.3%. The “Mean % Visual Necrosis” value (AAD12 Soybean (GLXMA) [1]; 7 DAA, 822 g ae/ha alone) was 0.8% and 0.0% and 10.0% and 1.0% and 1.3%, the “Mean % Visual Necrosis” value (AAD12 Soybean (GLXMA) [1]; 7 DAA, 1084 g ae/ha alone) was 3.3% and 1.3% and 10.0% and 2.0% and 2.3% and the “Mean % Visual Necrosis” value (AAD12 Soybean (GLXMA) [1]; 8 DAA, 822 g ae/ha alone) was 7.5%. The “Mean % Visual Necrosis” value (AAD12 Soybean (GLXMA) [1]; 8 DAA, 1084 g ae/ha alone) was 10.0% and 12.5% and 6.5%, the “Mean % Visual Necrosis” value (AAD12 Soybean (GLXMA) [1]; 9 DAA, 822 g ae/ha alone) was 6.0% and the “Mean % Visual Necrosis” value (AAD12 Soybean (GLXMA) [1]; 10 DAA, 1084 g ae/ha alone) was 2.3%. For the same compound, the “Mean % Visual Necrosis” value (AAD12 Soybean (GLXMA) [1]; 14 DAA, 822 g ae/ha alone) was 0.0% and 1.0%, the “Mean % Visual Necrosis” value (AAD12 Soybean (GLXMA) [1]; 14 DAA, 1084 g ae/ha alone) was 5.0% and 2.0% and the “Mean % Visual Necrosis” value (AAD12 Soybean (GLXMA) [1]; 16 DAA, 542 g ae/ha alone) was 3.0%. For the same compound, the “Mean % Visual Necrosis” value (AAD12 Soybean (GLXMA) [1]; 16 DAA, 822 g ae/ha alone) was 5.0%, the “Mean % Visual Necrosis” value (AAD12 Soybean (GLXMA) [1]; 16 DAA, 1084 g ae/ha alone) was 1.8% and the “Mean % Visual Chlorosis” value (AAD12 Soybean (GLXMA) [2]; 10 DAA, 1084 g ae/ha alone) was 8.5% and 10.0%. The “Mean % Visual Chlorosis” value (AAD12 Soybean (GLXMA) [2]; 14 DAA, 542 g ae/ha alone) was 5.8%.
